ChEMBL document CHEMBL1221215, “A domino effect in antifolate drug action in Escherichia coli” (Nat Chem Biol, 2008)
Active and inactive are the calls of the source. No cut-off for these calls is given here.

Each compound was assayed against T1, Dihydrofolate synthase/folylpolyglutamate synthase (Escherichia coli (strain K12)) (UniProt P08192) (assay: Inhibition of Escherichia coli K-12 recombinant His-tagged folylpoly-gamma-glutamate synthetase expressed in Escherichia coli BL21 at 200 uM LC-MS/MS method). Conditions: NCM3722.
T1 sequence (whole entry): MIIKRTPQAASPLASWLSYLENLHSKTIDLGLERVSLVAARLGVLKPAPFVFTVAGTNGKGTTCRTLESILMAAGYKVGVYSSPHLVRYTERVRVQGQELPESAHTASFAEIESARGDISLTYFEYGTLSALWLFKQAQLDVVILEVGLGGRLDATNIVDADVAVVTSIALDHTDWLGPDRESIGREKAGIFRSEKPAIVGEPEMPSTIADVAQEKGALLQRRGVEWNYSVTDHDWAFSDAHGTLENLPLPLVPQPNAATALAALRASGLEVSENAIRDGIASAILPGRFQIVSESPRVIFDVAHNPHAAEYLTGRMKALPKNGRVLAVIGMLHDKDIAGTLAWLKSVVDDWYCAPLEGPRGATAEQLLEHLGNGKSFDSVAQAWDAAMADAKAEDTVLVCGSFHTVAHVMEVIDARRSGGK

**Q.** For `Nc1nc(=O)c2c([nH]1)NCC(CNc1ccc(C(=O)N[C@@H](CCC(=O)O)C(=O)O)cc1)=N2`, which inhibition is on record?
**A.** Its inhibition is “Active”.

**Q.** How did the inhibition turn out when `CN1c2c([nH]c(N)nc2=O)NCC1CNc1ccc(C(=O)N[C@@H](CCC(=O)O)C(=O)O)cc1` (some centres undefined) was run?
**A.** Its inhibition is “inactive”.

**Q.** With `COc1cc(Cc2cnc(N)nc2N)cc(OC)c1OC` as the compound, how does the inhibition read?
**A.** The inhibition was “inactive”.

**Q.** For `Nc1nc(=O)c2nc(CNc3ccc(C(=O)N[C@@H](CCC(=O)O)C(=O)O)cc3)cnc2[nH]1`, which inhibition is on record?
**A.** The inhibition was “inactive”.
